Assay [1] concerns wild-type Jinjing 818. Put plainly: Herbicide resistance test, T0 generation, spray application: wild-type control. The class given is in vivo, rice. Particulars: 2, 4, 8 and 32 g a.i./mu. The procedure: (§1) The transformation seedlings of T0 generation identified as doubling event positive were transplanted into large plastic buckets in the greenhouse for expanding propagation to obtain seeds of T1 generation. After the seedlings began to tiller, the tillers were taken from vigorously growing strains, and planted in the same pots with the tillers of the wild-type control varieties at the same growth period. After the plant height reached about 20 cm, the herbicide resistance test was conducted. The herbicide used was Shuangzuocaotong (CAS No. 1622908-18-2) produced by our company, and its field dosage was usually 4 grams of active ingredients per mu (4 g a.i./mu). In this experiment, Shuangzuocaotong was applied at a dosage gradient of 2 g a.i./mu, 4 g a.i./mu, 8 g a.i./mu and 32 g a.i./muwith a walk-in spray tower.

Assay [2] relates to QY2091 T0 generation HPPD gene doubling strain. Nature of the assay: Herbicide resistance test, T0 generation, spray application: HPPD doubling strains. The assay is classed as in vivo, rice. Particulars: for phenotype of HPPD doubling event strains after application: 2, 4, 8 and 32 g a.i./mu. Here is the method:
as §1

Assay [3] relates to wild-type Jinjing 818. Put plainly: Herbicide resistance test at seedling stage, germination on 1/2 MS medium with herbicide: wild-type control. The class given is in vivo, rice. To be noted: 1.2 μM in 1/2 MS medium, 10 days of cultivation in light. Here is the method: (§2) The herbicide resistance of the T1 generation of the QY2091 HPPD doubled strain was tested at the seedling stage. After the T1 generation seeds were subjected to surface disinfection, they germinated on ½ MS medium containing 1.2 μM Shuangzuocaotong, and cultivated at 28° C., 16 hours light/8 hours dark, in which wild-type Jinjing 818 was used as a control.

Assay [4] relates to T1 generation of the QY2091 HPPD doubled strain. Put plainly: Herbicide resistance test at seedling stage, germination on 1/2 MS medium with herbicide: T1 of HPPD doubled strain. The class given is in vivo, rice. To be noted: 1.2 μM in 1/2 MS medium, 10 days; lines QY2091-7, 13, 20, 22. The procedure: as §2
Assay [5] concerns wild-type Huaidao No. 5. Put plainly: PPO inhibitory herbicide resistance test, T0 generation, spray application: wild-type control. To be noted: 0.18, 0.4 and 0.6 g ai/mu. The class given is in vivo, rice. From the text: (§3) Transformation seedlings of QY2234 T0 generation identified as inversion event-positive were transplanted into large plastic buckets in the greenhouse to grow seeds of T1 generation. There were a large number of positive seedlings, so some T0 seedlings and wild-type control lines with similar growth period and status were selected. When the plant height reached about 20 cm, the herbicide resistance test was directly carried out. The herbicide used was a high-efficiency PPO inhibitory herbicide [drawing 1] produced by the company (code 2081, see […] Patent Application for Invention No. 202010281666.4). In this experiment, the herbicide was applied at the gradients of three levels, namely 0.18, 0.4, and 0.6 g ai/mu, by a walk-in type spray tower.

Assay [6] deals with QY2234 T0 generation PPO1 inversion strain. Put plainly: PPO inhibitory herbicide resistance test, T0 generation, spray application: PPO1 inversion lines. The class given is in vivo, rice.
Excerpt: as §3

Assay [7] concerns QY2234/H5-851 T1 seedlings. Put plainly: Herbicide resistance test of T1 generation seedlings, spraying: PPO1 inversion line. Particulars: 5 days after application. The assay is classed as in vivo, rice. Here is the method:
(§4) The herbicide resistance test was performed on the T1 generation of the QY2234/H5-851 PPO1 inversion lines at seedling stage. The wild-type Huaidao No. 5 was used as a control, and planted simultaneously with the T1 generation seeds of the inversion lines. When the seedlings reached a plant height of 15 cm, 2081 was applied by spraying at four levels of 0.3, 0.6, 0.9 and 1.2 g a.i./mu. The culture conditions were 28° C., with 16 hours of light and 8 hours of darkness.

The subject of assay [8] is wild-type Huaidao No. 5. Nature of the assay: Herbicide resistance test of T1 generation seedlings, spraying: wild-type control. Particulars: 5 days after application. The class given is in vivo, rice. Here is the method:
as §4

The test system of assay [9] is Plants containing the new EPSPS gene. Put plainly: Herbicide bioassay on plants containing the new EPSPS gene. The class given is in vivo. To be noted: rice plants from Agrobacterium-transformed calli. An excerpt: These vectors were transferred into Agrobacterium for transforming calli of rice. Plants containing the new EPSPS gene were obtained.
The mark [10] stands for this setting: T0 generation, versus wild type.

Consider `Cc1nn(C)cc1C(=O)Oc1c(C(=O)c2ccc(C(F)(F)F)cc2S(C)(=O)=O)c(C)nn1C` [Shuangzuocaotong], for which, in the assay with wild-type Jinjing 818 [1] (4 weeks after application), the “phenotype of wild-type rice seedlings after application” value is “close to death”. Besides, the “phenotype of wild-type control rice seedlings after application” value in the assay with wild-type Jinjing 818 [1] (5-7 days after application, spray tower) is recorded as “began to show albino”. For the same compound, the “phenotype of HPPD doubling event strains after application” value in [2] (4 weeks after application) is “all continued to remain green and grew normally”; in assay [2] (5-7 days after application) it was “all remained normally green”. Also, the “tolerance of HPPD gene-doubled strains to the herbicide” value in [2] (setting [10]) is “significantly improved tolerance”. The “resistance of plants to the HPPD inhibitory herbicide” value in [2] (T0 transformed seedlings, field dosage 4 g a.i./mu) is reported as “up to 8 times the field dose”. For the same compound, in the assay with wild-type Jinjing 818 [3], the “phenotype of wild-type control rice seedlings” value is on record as “almost all albino”. Further, in [4], the “phenotype of green T1 seedlings of HPPD doubling lines” value is “continued to remain green and grew normally”.

In the case of `COC(=O)[C@@H](C)O/N=C/c1cc(-n2c(=O)cc(C(F)(F)F)n(C)c2=O)c(F)cc1Cl` [compound 2081], the “phenotype of wild-type control rice seedlings after application” value in the assay with wild-type Huaidao No. 5 [5] (3-5 days after application) is “began to wither from tip of leaf, necrotic spots appeared on the leaves, and the plants gradually withered”. Also, the “phenotype of wild-type rice seedlings after application” value with wild-type Huaidao No. 5 [5] (two weeks after application) is “died”. The “phenotype of most lines of the PPO1 inversion event after application” value in [6] (3-5 days after application, 0.18, 0.4 and 0.6 g ai/mu) was “maintained normal growth, the leaves had no obvious phytotoxicity”. Also, in [6] (setting [10]), the “tolerance of PPO1 inversion lines to the herbicide” value is reported as “significantly improve the tolerance”. Moreover, in assay [6] (two weeks after application, 0.18, 0.4 and 0.6 g ai/mu), the “phenotype of most inversion event strains after application” value is “continued to remain green and grew normally”. Also, the “phytotoxicity on QY2234/H5-851 T1 seedlings” value in assay [7] (0.3 g a.i./mu) was “maintain normal growth”; in assay [7] (0.6 and 0.9 g ai/mu), “most T1 seedlings could keep green and continue to grow”; in assay [7] (1.2 g a.i./mu), “some of the T1 seedlings could keep green and continue to grow”. The “phytotoxicity on wild-type control rice seedlings” value with wild-type Huaidao No. 5 [8] (0.3 g a.i./mu) is recorded as “obvious phytotoxicity”; in the assay with wild-type Huaidao No. 5 [8] (0.6 g a.i./mu), “the plants died quickly”. In addition, the “phytotoxicity on wild-type control” value in the assay on wild-type Huaidao No. 5 [8] (0.6 and 0.9 g ai/mu) was “substantially died off”. Also, the “phytotoxicity on wild-type control plants” value with wild-type Huaidao No. 5 [8] (1.2 g a.i./mu) is reported as “all dead”.

For the compound `O=C(O)CNCP(=O)(O)O` [glyphosate], the “resistance of plants containing the new EPSPS gene to the herbicide” value in assay [9] is given as “obvious resistance”.

The values are drawn from patent publication US12692509B2, “Methods for generating new genes in organism and use thereof” (Qingdao Kingagroot Chemical Compound Co., Ltd., priority 2019, dated 2026).
